ChEMBL document CHEMBL4190162, “SAR and identification of 2-(quinolin-4-yloxy)acetamides as Mycobacterium tuberculosis cytochrome bc1 inhibitors” (Medchemcomm, 2016)
≈ marks a conversion by molar mass, not a printed value.

Key:
[1] = test system: Mycobacterium tuberculosis; assay: Antimycobacterial activity against Mycobacterium tuberculosis H37Rv harboring cyd deletion mutant measured after 2 weeks by microplate alamar blue assay; assay type: functional
[2] = test system: Mycobacterium tuberculosis H37Rv; assay: Inhibition of QCR4 A396T mutant in Mycobacterium tuberculosis H37Rv harboring cyd deletion mutant assessed as reduction in bacterial growth relative to wild-type QCR4
[3] = test system: Mycobacterium tuberculosis H37Rv; assay: Inhibition of QCR2 M342T mutant in Mycobacterium tuberculosis H37Rv harboring cyd deletion mutant assessed as reduction in bacterial growth relative to wild-type QCR2
[4] = test system: Mycobacterium tuberculosis H37Rv; assay: Inhibition of QCR1 A317V mutant in Mycobacterium tuberculosis H37Rv harboring cyd deletion mutant assessed as reduction in bacterial growth relative to wild-type QCR1
[5] = test system: Mycobacterium tuberculosis H37Rv; assay: Inhibition of QCR7 S182T mutant in Mycobacterium tuberculosis H37Rv harboring cyd deletion mutant assessed as reduction in bacterial growth relative to wild-type QCR7
[6] = test system: Mycobacterium tuberculosis H37Rv; assay: Inhibition of QCR6 A317T mutant in Mycobacterium tuberculosis H37Rv harboring cyd deletion mutant assessed as reduction in bacterial growth relative to wild-type QCR6
[7] = test system: Mycobacterium tuberculosis H37Rv; assay: Inhibition of QCR3 W312G mutant in Mycobacterium tuberculosis H37Rv harboring cyd deletion mutant assessed as reduction in bacterial growth relative to wild-type QCR3
[8] = test system: Mycobacterium tuberculosis H37Rv; assay: Inhibition of QCR5 M342I mutant in Mycobacterium tuberculosis H37Rv harboring cyd deletion mutant assessed as reduction in bacterial growth relative to wild-type QCR5

COc1ccc2nc(C)cc(OCC(=O)NCCc3ccccc3)c2c1
MIC [1]: 4.45 µM (≈ 1.56 µg/mL)

COc1ccc2nc(C)cc(OCC(=O)Nc3ccc(C)cc3)c2c1
fold change (FC) [2]: > 2
MIC [1]: <0.071 µM
fold change (FC) [3]: > 2
fold change (FC) [4]: > 32.5
fold change (FC) [5]: > 16.3
fold change (FC) [6]: > 12.5
fold change (FC) [7]: > 16.3
fold change (FC) [8]: 1

COc1ccc2nc(C)cc(OCC(=O)Nc3ccc4c(c3)OCO4)c2c1
fold change (FC) [2]: 5.6
MIC [1]: 0.19 µM (≈ 0.0696 µg/mL)
fold change (FC) [3]: 2.1
fold change (FC) [4]: 134
fold change (FC) [5]: 32.9
fold change (FC) [6]: 32.9
fold change (FC) [7]: 17.1
fold change (FC) [8]: 1.4

COc1cc(NC(=O)COc2cc(C)nc3ccc(OC)cc23)cc(OC)c1
MIC [1]: 2.04 µM (≈ 0.78 µg/mL)

COc1ccc2nc(C)cc(OCC(=O)Nc3ccccc3)c2c1
fold change (FC) [2]: 5
MIC [1]: 0.12 µM (≈ 0.0387 µg/mL)
fold change (FC) [3]: 3.8
fold change (FC) [4]: > 1250
fold change (FC) [5]: 19.5
fold change (FC) [6]: 30
fold change (FC) [7]: 235
fold change (FC) [8]: 1.8

COc1ccc2nc(C)cc(OCC(=O)NCCc3ccc4c(c3)OCO4)c2c1
MIC [1]: 3.04 µM (≈ 1.2 µg/mL)

COc1ccc2nc(C)cc(OCC(=O)NCc3ccc4c(c3)OCO4)c2c1
fold change (FC) [2]: > 6.3
MIC [1]: <0.063 µM
fold change (FC) [3]: > 12.5
fold change (FC) [4]: > 130
fold change (FC) [5]: > 95.8
fold change (FC) [6]: > 32.5
fold change (FC) [7]: > 25
fold change (FC) [8]: > 12.5

COc1cccc(NC(=O)COc2cc(C)nc3ccc(OC)cc23)c1
MIC [1]: 0.57 µM (≈ 0.201 µg/mL)

COc1ccc2nc(C)cc(OCC(=O)Nc3cccc(Br)c3)c2c1
MIC [1]: 0.37 µM (≈ 0.148 µg/mL)

COc1ccccc1NC(=O)COc1cc(C)nc2ccccc12
MIC [1]: 7.13 µM (≈ 2.3 µg/mL)

COc1ccc2nc(C)cc(OCC(=O)Nc3ccc(Cl)cc3)c2c1
MIC [1]: 0.2 µM (≈ 0.0714 µg/mL)

COc1ccc(OC)c(CCNC(=O)COc2cc(C)nc3ccc(OC)cc23)c1
MIC [1]: 7.62 µM (≈ 3.13 µg/mL)

COc1ccc2nc(C)cc(OCC(=O)NCc3ccccc3)c2c1
fold change (FC) [2]: 3.9
MIC [1]: 0.59 µM (≈ 0.198 µg/mL)
fold change (FC) [3]: 3
fold change (FC) [4]: > 250
fold change (FC) [5]: 15.7
fold change (FC) [6]: 23.5
fold change (FC) [7]: 47
fold change (FC) [8]: 3.9

COc1ccc2nc(C)cc(OCC(=O)Nc3ccccc3Cl)c2c1
MIC [1]: <0.067 µM

COCCNC(=O)COc1cc(C)nc2ccc(OC)cc12
MIC [1]: 41.06 µM (≈ 12.5 µg/mL)

COc1ccc2nc(C)cc(OCC(=O)Nc3ccc(-c4ccccc4)cc3)c2c1
MIC [1]: 0.12 µM (≈ 0.0478 µg/mL)

COc1ccc(NC(=O)COc2cc(C)nc3ccc(OC)cc23)cc1
fold change (FC) [2]: 3.1
MIC [1]: 0.14 µM (≈ 0.0493 µg/mL)
fold change (FC) [3]: 4.1
fold change (FC) [4]: 63.9
fold change (FC) [5]: 15.9
fold change (FC) [6]: 24.5
fold change (FC) [7]: 24.5
fold change (FC) [8]: 3.1

CC(=O)NC[C@H]1CN(c2ccc(N3CCOCC3)c(F)c2)C(=O)O1 [LINEZOLID]
MIC [1]: 1.56 µM (≈ 0.526 µg/mL)

COc1ccc(NC(=O)COc2cc(C)nc3ccc(OC)cc23)c(OC)c1
MIC [1]: 0.18 µM (≈ 0.0688 µg/mL)

CCCCCNC(=O)COc1cc(C)nc2ccc(OC)cc12
MIC [1]: 0.95 µM (≈ 0.301 µg/mL)

COc1ccccc1NC(=O)COc1cc(C)nc2ccc(Br)cc12
MIC [1]: 0.5 µM (≈ 0.201 µg/mL)

COc1ccc2nc(C)cc(OCC(=O)Nc3ccc(Br)cc3)c2c1
MIC [1]: 0.17 µM (≈ 0.0682 µg/mL)

COc1ccccc1NC(=O)COc1cc(C)nc2ccc(C)cc12
MIC [1]: 0.45 µM (≈ 0.151 µg/mL)

c1ccc(Cn2cnc3c(-c4ccco4)nccc32)cc1
fold change (FC) [2]: 20.2
MIC [1]: 0.31 µM (≈ 0.0853 µg/mL)
fold change (FC) [3]: 20.2
fold change (FC) [4]: > 81
fold change (FC) [5]: 61.3
fold change (FC) [6]: 10.1
fold change (FC) [7]: > 81
fold change (FC) [8]: 20.2

COc1ccc2nc(C)cc(OCC(=O)NCCc3ccc(OC)c(OC)c3)c2c1
MIC [1]: 90.13 µM (≈ 37 µg/mL)

COc1ccc2nc(C)cc(OCC(=O)Nc3ccccc3OC)c2c1
fold change (FC) [2]: 4.1
MIC [1]: 0.14 µM (≈ 0.0493 µg/mL)
fold change (FC) [3]: 1.4
fold change (FC) [4]: 46.9
fold change (FC) [5]: 15.9
fold change (FC) [6]: 24.5
fold change (FC) [7]: 46.9
fold change (FC) [8]: 6.1

COc1ccccc1NC(=O)COc1cc(C)nc2ccc(C(F)(F)F)cc12
MIC [1]: >128 µM

COc1ccccc1NC(=O)COc1cc(C)nc2ccc(Cl)cc12
MIC [1]: 1.09 µM (≈ 0.389 µg/mL)

COc1ccc2nc(C)cc(OCC(=O)NCCCc3ccccc3)c2c1
MIC [1]: 2.14 µM (≈ 0.78 µg/mL)

Nc1ccc(C(=O)O)c(O)c1 [AMINOSALICYLIC ACID]
fold change (FC) [2]: 0.3
MIC [1]: 0.6 µM (≈ 0.0919 µg/mL)
fold change (FC) [3]: 0.3
fold change (FC) [4]: 0.5
fold change (FC) [5]: 0.5
fold change (FC) [6]: 0.2
fold change (FC) [7]: 0.5
fold change (FC) [8]: 0.5

C#CCNC(=O)COc1cc(C)nc2ccc(OC)cc12
MIC [1]: 21.98 µM (≈ 6.25 µg/mL)

COc1ccc2nc(C)cc(OCC(=O)Nc3ccc(OC)c(OC)c3)c2c1
MIC [1]: 3.14 µM (≈ 1.2 µg/mL)
